In data set [1] the test system is patient derived organoids derived from patient 19004. The data set can be described thus: Patient derived organoid (PDO) viability, AlamarBlue, FIGS. 53A and 53B. The settings on record: Homo sapiens, 192 h, ER-positive PDOs categorized into IntClust4, text says 19006 patient (FIGS. 53A and 53B), 8 days treatment, 'on the order of', units given within the value. It counts as cell-based. The method, then:
FIGS. 53A and 53B provide viability curves of patient derived organoids derived from patient 19004, generated in accordance with various embodiments of the invention.
To assess breast cancer PDOs, the organoids were digested into single cells with TrypLE (Gibco). Cells are strained with a 100 μm filter then seeded as 10,000 cells per well with 10 μl […] (BME) (Cultrex) in a black, clear bottom 96-well plate and covered with 100 μl breast organoid media. Cells are grown for 4 days to form small spheroids. Cells were treated with 6 concentrations of different targeted Therapies (including but not limited to capivasertib, ipatasertib, PF4706871, M2698, alpelisib), as well as negative control (DMSO) and positive control (Triton X-100) in duplicate for 8 days, with drug media refreshed on day 5. On day 8, the plates are manually checked under the microscope to ensure the positive control drug(s) had effectively killed organoids, and that organoids present in the negative control wells were healthy. Cell viability is assessed using AlamarBlue (Thermofisher) by adding the dye to the media in final concentration of 1:10, followed by incubation for 4 hours at 37° C., and […] measurement using a microplate reader (Molecular Devices). […] Averages of IC50s from two to three independent experiments were calculated and visualized using R. […]

Data set [2] deals with PDOs derived from the 19006 patient. The data set can be described thus: Patient derived organoid (PDO) viability, AlamarBlue, patient 19006. The settings on record: Homo sapiens, 192 h, ER-positive PDOs categorized into IntClust4, 19006 patient (FIGS. 52A and 52B), 8 days treatment, 'on the order of', units given within the value. It counts as cell-based. The method, then:
FIGS. 52A and 52B provide viability curves of patient derived organoids derived from patient 19006, generated in accordance with various embodiments of the invention.
To assess breast cancer PDOs, the organoids were digested into single cells with TrypLE (Gibco). Cells are strained with a 100 μm filter then seeded as 10,000 cells per well with 10 μl […] (BME) (Cultrex) in a black, clear bottom 96-well plate and covered with 100 μl breast organoid media. Cells are grown for 4 days to form small spheroids. Cells were treated with 6 concentrations of different targeted Therapies (including but not limited to capivasertib, ipatasertib, PF4706871, M2698, alpelisib), as well as negative control (DMSO) and positive control (Triton X-100) in duplicate for 8 days, with drug media refreshed on day 5. On day 8, the plates are manually checked under the microscope to ensure the positive control drug(s) had effectively killed organoids, and that organoids present in the negative control wells were healthy. Cell viability is assessed using AlamarBlue (Thermofisher) by adding the dye to the media in final concentration of 1:10, followed by incubation for 4 hours at 37° C., and […] measurement using a microplate reader (Molecular Devices). IC50 values are computed using R package drc. Averages of IC50s from two to three independent experiments were calculated and visualized using R.
Likewise, capivasertib, ipatasertib, and M22698, but not alpelisib and PF4706871, each provide IC50 on the order of 100 nM to 10 μM for PDOs derived from the 19006 patient (FIGS. 53A and 53B).
(Resazurin is reduced to fluorescent resorufin, in cell work by metabolically active cells.)

For data set [3], the system named is patients with metastatic ER-positive breast cancer. Put plainly: Progression free survival by molecular subgroup in a prospective cohort of 812 patients. It counts as in vivo, human. The note with it: for progression free survival after endocrine therapy, high-risk vs lower risk integrative cluster groups: endocrine therapy (fulvestrant or tamoxifen), pooled, groups averaged together, FIG. 47, adj. P=0.0075. An excerpt: The ability of chemotherapy, targeted therapies, and endocrine therapies on patients within particular molecular subgroups was examined in a prospective cohort of 812 patients with metastatic ER-positive breast cancer. Provided in FIG. […]

For data set [4] the following is noted: general statement, no test described; cited from earlier work.

The values that follow come from US20220359084A1, “Methods of Treatments Based Upon Molecular Characterization of Breast Cancer” (The Board of Trustees of the Leland Stanford Junior …, priority 2019, published 2022).

The IC50 is the point on the concentration scale where inhibition reaches its midpoint.

For the compound `NC(=O)c1cccc2c(N[C@H](CN3CCC3)c3ccc(Cl)c(C(F)(F)F)c3)ncnc12` [M22698], the IC50 in data set [1] and in data set [2] was 0.1 to 10 µM in each case.

`Cc1nc(NC(=O)N2CCC[C@H]2C(N)=O)sc1-c1ccnc(C(C)(C)C(F)(F)F)c1` [alpelisib] gave an IC50 in data set [2] of 0.1 to 10 µM.

With `CO[C@H]1C[C@@H]2CC[C@@H](C)[C@@](O)(O2)C(=O)C(=O)N2CCCC[C@H]2C(=O)O[C@H]([C@H](C)C[C@@H]2CC[C@@H](OCCO)[C@H](OC)C2)CC(=O)[C@H](C)/C=C(\C)[C@@H](O)[C@@H](OC)C(=O)[C@H](C)C[C@H](C)/C=C/C=C/C=C/1C` [everolimus], the “progression free survival probability, with vs without mTOR antagonist treatment” value in data set [3] (IntClust1 patients, FIG. 45, adj. P value=0.023) is “profoundly greater survival probability”.

On to `C[C@]12CC[C@@H]3c4ccc(O)cc4C[C@@H](CCCCCCCCC[S+]([O-])CCCC(F)(F)C(F)(F)F)[C@H]3[C@@H]1CC[C@@H]2O` (stereo partly drawn) [fulvestrant], for which the oral availability result in data set [4] is given as “low”. Also, the “progression free survival probability, aromatase inhibitor vs fulvestrant treatment” value in data set [3] (IntClust1, IntClust2 and IntClust6 patients (averaged together), FIG. 48, adj. P value=0.004) is on record as “patients receiving an aromatase inhibitor had greater survival probability than patients receiving fulvestrant”. The “progression free survival probability, fulvestrant vs aromatase inhibitor treatment” value in data set [3] (IntClust9 patients, FIG. 49, adj. P value=0.361) is given as “slightly, yet insignificantly, greater survival probability”. In data set [3], the “progression free survival after endocrine therapy, high-risk vs lower risk integrative cluster groups” value was “lower risk groups have higher probability of progression free survival than high-risk groups”.

In the case of `CC(C)NC[C@@H](C(=O)N1CCN(c2ncnc3c2[C@H](C)C[C@H]3O)CC1)c1ccc(Cl)cc1` [ipatasertib], the IC50 in data set [1] and in data set [2] was 0.1 to 10 µM each time.

For `CN(C)C(=O)c1cc2cnc(Nc3ccc(N4CCNCC4)cn3)nc2n1C1CCCC1` [ribociclib], the “progression free survival probability, with vs without CDK4/6 antagonist treatment” value in data set [3] (IntClust2 patients, pooled CDK4/6 inhibitor group, FIG. 46, adj. P value=0.016) is “profoundly greater survival probability”.

In the case of `CC/C(=C(\c1ccccc1)c1ccc(OCCN(C)C)cc1)c1ccccc1` [tamoxifen], the “progression free survival after endocrine therapy, high-risk vs lower risk integrative cluster groups” value in data set [3] is “lower risk groups have higher probability of progression free survival than high-risk groups”.
